Patent publication US20230312646A1, “ANTIBACTERIAL PEPTIDES” (priority 2020, published 2023)
pKd: −log10 of the molar value. Like-named read-outs stand apart in the source and are kept apart here. Numbered stars: 1 amine (or outer) side, 2 acyl side, 3 side chain; on linkers, the order of the positions; unused ones are H or OH. Square brackets hold non-standard residues; d marks the D form. Peptide text beside a SMILES is read from it. * marks the point of attachment. ACHC(1S,2S) = O=C([C@H]1CCCC[C@@H]1N[*:1])[*:2]; Acryloyl(3-(3-pyridyl),E) = O=C(/C=C/c1cccnc1)*; Phe(3,4-Cl2) = N[C@@H](Cc1ccc(Cl)c(Cl)c1)C(=O)O; X5 = O=C([C@@H]1CC(O)CN1[*:1])[*:2]; NMeR = CN[C@@H](CCCNC(=N)N)C(=O)O; Cha = N[C@@H](CC1CCCCC1)C(=O)O; NMeD = CN[C@@H](CC(=O)O)C(=O)O; Pip = O=C(O)[C@@H]1CCCCN1; Sar = CNCC(=O)O

Assays:
[1] = biological target: T1, Escherichia coli SC (^EcSC) (Escherichia coli, UniProt P0A988); assay: biochemical; format: binding
T1 construct: His tag (inferred from the pET15b vector and Ni-NTA purification) (N); made in house; host or cells: E. coli
T1 sequence (P0A988 whole entry): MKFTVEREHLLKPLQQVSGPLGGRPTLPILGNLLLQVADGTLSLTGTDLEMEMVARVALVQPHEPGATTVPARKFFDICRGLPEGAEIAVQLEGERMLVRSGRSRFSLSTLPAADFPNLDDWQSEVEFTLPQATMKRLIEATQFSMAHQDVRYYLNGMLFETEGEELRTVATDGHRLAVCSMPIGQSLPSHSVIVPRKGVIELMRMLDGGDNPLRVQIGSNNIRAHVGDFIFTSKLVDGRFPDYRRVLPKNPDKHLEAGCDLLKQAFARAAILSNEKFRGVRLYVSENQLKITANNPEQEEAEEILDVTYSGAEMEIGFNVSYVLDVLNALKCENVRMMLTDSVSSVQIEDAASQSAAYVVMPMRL
Protocol: The procedure has been described previously (Wolff, P.; Oliéric, V.; Briand, J. P.; Chaloin, O.; Dejaegere, A.; Dumas, P.; Ennifar, E.; Guichard, G.; Wagner, J.; Burnouf, D. Y., Structure-Based Design of Short Peptide Ligands Binding onto the E. coli Processivity Ring. J. Med. Chem. 2011, 54 (13), 4627-4637). Briefly, E.coli cells were transformed with plasmids pET15b containing the dnaN gene from E. coli and were grown in LB at 37° C. to OD 0.5, then induced by IPTG (0.1 mM) at 28° C. overnight. dnaN proteins fractions were first enriched on a Ni-NTA column, eluted with a histidine step (300 mM) and further purified on a Source Q column in buffer containing 20 mM Tris HCI pH 7.5, 0.5 mM EDTA and 10% (v/v) glycerol, using a gradient from 0 to 0.5 M NaCl. After a final ultracentrifugation (45 K, 1 h, 20° C.), soluble proteins were concentrated on a Centricon 30 K (Millipore) in the same buffer and stored at 4° C. in 2 M ammonium sulfate. Buffer exchange was performed on Centrikon 10 K at 4° C. before use and protein quality was assessed by DLS.
(§1) ITC experiments were performed using an iTC200 or a PEAQ-ITC instrument (Microcal Malvern Panalytical). Peptides (300 or 600 µM) were titrated at 25° C. by sequential injections (usually 2 µl each) into an SC solution (30 or 60 µM). Data were corrected for heat of injection by subtracting the signal of the titration of peptides into proteiN-free buffer solution (Hepes 10 mM pH 7.4, NaCl 0.15 M, EDTA 3 mM). Each titration was performed at least twice. Analyses of experimental data were performed following a classical treatment with the AFFINImeter software (https://www.affinimeter.com; S4S, Santiago de Compostela, Spain). In addition, kinetic information was obtained in some cases with kinITC as implemented in the software AFFINImeter.
All newly synthesized peptides were tested for their interaction with ^EcSC by ITC at 25° C. As a general rule, all thermodynamic profiles reveal an exothermic interaction, and a non-favorable entropic component. The resulting negative Gibb’s free energies characterize a spontaneous interaction. The analysis of raw data by the Affinimeter® software also gave access to kinetics rate constant of the interaction.

[2] = biological target: T2, clamps from Pseudomonas aeruginosa (^PaSC) (Pseudomonas aeruginosa, UniProt Q9I7C4); assay: ITC of peptides with P. aeruginosa clamp; format: binding; conditions: for Kd: ITC at 25° C., means of three independant experiments, standard deviations in brackets; for pKd: range over ^PaSC and ^AbSC
T2 construct: made in house
T2 sequence (Q9I7C4 whole entry): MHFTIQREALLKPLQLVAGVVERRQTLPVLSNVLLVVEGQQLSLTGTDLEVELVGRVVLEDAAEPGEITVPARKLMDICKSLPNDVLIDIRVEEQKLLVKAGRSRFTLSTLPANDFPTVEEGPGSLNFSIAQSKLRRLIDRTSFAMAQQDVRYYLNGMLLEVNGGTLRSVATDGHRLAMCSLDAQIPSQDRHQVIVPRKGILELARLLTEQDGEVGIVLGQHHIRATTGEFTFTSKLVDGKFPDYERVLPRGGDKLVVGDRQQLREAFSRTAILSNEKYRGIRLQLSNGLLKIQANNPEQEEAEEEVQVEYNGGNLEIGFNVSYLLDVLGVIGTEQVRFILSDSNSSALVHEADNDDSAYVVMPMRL
Protocol: as §1
Protein quality was assessed by DLS. The purification of clamps from other bacteria used the same procedure.
The bacterial sliding clamps present a highly conserved binding site among bacterial species. […] All these species belong to the ESKAPE group and are in the first priority bacteria list established by the World Health Organization for which new antibiotics are urgently needed.

[3] = Kd (nM), ITC at 298.15 K (25° C.)
[4] = affinities (Kd in nM), P. aeruginosa
[5] = affinities (Kd in nM), E.coli, ITC at 25° C., means of three independant experiments, standard deviations in brackets

CC(=O)N[C@@H](CCC(N)=O)C(=O)N[C@@H](CC1CCCCC1)C(=O)N[C@@H](CC(=O)O)C(=O)N[C@@H](CC(C)C)C(=O)NCC(=O)N[C@@H](Cc1ccccc1)C(=O)O [P29] (Ac-Q[Cha]DLGF-OH)
ΔG (kcal/mol) ([1]; ITC at 298.15 K (25° C.)): -8.9 (± 0.1) kcal/mol
Kd [1, 3]: 313 nM
kon ([1]; read-out: kon (M^-1.s^-1)): 32000 M⁻¹ s⁻¹

CC(=O)N[C@@H](CCC(N)=O)C(=O)N[C@@H](CC1CCCCC1)C(=O)N[C@@H](CC(=O)O)C(=O)N[C@@H](CC(C)C)C(=O)N(C)CC(=O)N[C@@H](CC(C)C)C(=O)O [P30] (Ac-Q[Cha]DL[Sar]L-OH)
ΔG (kcal/mol) ([1]; ITC at 298.15 K (25° C.)): -8.5 (± 0.2) kcal/mol
Kd [1, 3]: 583 nM
kon ([1]; read-out: kon (M^-1.s^-1)): 40000 M⁻¹ s⁻¹

CC(=O)N[C@@H](CCC(N)=O)C(=O)N[C@@H](CC1CCCCC1)C(=O)N[C@@H](CC(=O)O)C(=O)N[C@@H](CC(C)C)C(=O)N[C@H]1CCCC[C@@H]1C(=O)N[C@@H](CC(C)C)C(=O)O [P31] (Ac-Q[Cha]DL[ACHC(1S,2S)]L-OH)
ΔG (kcal/mol) ([1]; ITC at 298.15 K (25° C.)): -7.4 (± 0.2) kcal/mol
Kd [1, 3]: 4070 nM
kon ([1]; read-out: kon (M^-1.s^-1)): 7400 M⁻¹ s⁻¹

CC(=O)N[C@@H](CCC(N)=O)C(=O)N[C@@H](CC1CCCCC1)C(=O)N[C@@H](CC(=O)O)C(=O)N[C@@H](CC(C)C)C(=O)N1CCC[C@H]1C(=O)N[C@@H](CC(C)C)C(=O)O [P32] (Ac-Q[Cha]DLPL-OH)
ΔG (kcal/mol) ([1]; ITC at 298.15 K (25° C.)): -9.2 (± 0.2) kcal/mol
Kd [1, 3]: 182 nM
fold lower Kd / affinity enhancement in comparison to peptide P27 ([1]; compared to P27): 4 fold
kon ([1]; read-out: kon (M^-1.s^-1)): 57000 M⁻¹ s⁻¹

CC(=O)N[C@@H](CCC(N)=O)C(=O)N[C@@H](CC1CCCCC1)C(=O)N[C@@H](CC(=O)O)C(=O)N[C@@H](CC(C)C)C(=O)N1CC(O)C[C@H]1C(=O)N[C@@H](CC(C)C)C(=O)O (stereo partly drawn) [P33] (Ac-Q[Cha]DL[X5]L-OH)
ΔG (kcal/mol) ([1]; ITC at 298.15 K (25° C.)): -8.8 (± 0.2) kcal/mol
Kd [1, 3]: 369 nM
kon ([1]; read-out: kon (M^-1.s^-1)): 44000 M⁻¹ s⁻¹

CC(=O)N[C@@H](CCC(N)=O)C(=O)N[C@@H](CC1CCCCC1)C(=O)N[C@@H](CC(=O)O)C(=O)N[C@@H](CC(C)C)C(=O)N1CCCC[C@H]1C(=O)N[C@@H](CC(C)C)C(=O)O [P34] (Ac-Q[Cha]DL[Pip]L-OH)
ΔG (kcal/mol) ([1]; ITC at 298.15 K (25° C.)): -9.0 (± 0.1) kcal/mol
Kd [1, 3]: 243 nM
kon ([1]; read-out: kon (M^-1.s^-1)): 43000 M⁻¹ s⁻¹

CC(=O)N[C@@H](CCC(N)=O)C(=O)N[C@@H](CC1CCCCC1)C(=O)N(C)[C@@H](CC(=O)O)C(=O)N[C@@H](CC(C)C)C(=O)N[C@@H](Cc1ccc(Cl)c(Cl)c1)C(=O)O [P35] (Ac-Q[Cha][NMeD]L[Phe(3,4-Cl2)]-OH)
Kd [2, 4]: 140 nM
Kd [1, 3]: 41 nM
kon ([1]; read-out: kon (M^-1 s^-1)): 270000 M⁻¹ s⁻¹

CC(=O)N[C@@H](CCCNC(=N)N)C(=O)N[C@@H](CCC(N)=O)C(=O)N[C@@H](CC1CCCCC1)C(=O)N(C)[C@@H](CC(=O)O)C(=O)N[C@@H](CC(C)C)C(=O)N[C@@H](Cc1ccc(Cl)c(Cl)c1)C(=O)O [P36] (Ac-RQ[Cha][NMeD]L[Phe(3,4-Cl2)]-OH)
Kd [1, 3]: 278 nM
kon ([1]; read-out: kon (M^-1 s^-1)): 76000 M⁻¹ s⁻¹

CC(=O)N(C)[C@@H](CCCNC(=N)N)C(=O)N[C@@H](CCC(N)=O)C(=O)N[C@@H](CC1CCCCC1)C(=O)N(C)[C@@H](CC(=O)O)C(=O)N[C@@H](CC(C)C)C(=O)N[C@@H](Cc1ccc(Cl)c(Cl)c1)C(=O)O [P37] (Ac-[NMeR]Q[Cha][NMeD]L[Phe(3,4-Cl2)]-OH)
Kd [2, 4]: 169 nM
pKd ([2]; affinity for these clamps (^PaSC and ^AbSC)): 6.77 to 6.92
Kd [1, 3]: 92 nM
Kd [1, 5]: 74 nM

CC(C)C[C@H](NC(=O)[C@H](CC(=O)O)N(C)C(=O)[C@H](CC1CCCCC1)NC(=O)[C@H](CCC(N)=O)NC(=O)/C=C/c1cccnc1)C(=O)N[C@@H](Cc1ccc(Cl)c(Cl)c1)C(=O)O [P38] ({Acryloyl(3-(3-pyridyl),E)}-Q[Cha][NMeD]L[Phe(3,4-Cl2)]-OH)
Kd ([2]; read-out: affinities (Kd in nM), P. aeruginosa): 120 nM
pKd ([2]; read-out: affinity for these clamps (^PaSC and ^AbSC)): 6.77 to 6.92
Kd [1, 3]: 46 nM
Kd [1, 5]: 45 nM
kon ([1]; read-out: kon (M^-1 s^-1)): 110000 M⁻¹ s⁻¹
